Test results reported in patent US6743413B1, “Suspension aerosol formulations” (3M Company, priority 1991, dated 2004).
Several values for one entry are separate records, joined by “and”; a condition that tells them apart may be missing. Identical values can stand only once.

Key:
Assay type in all cases: physicochemical
[1] = Visual observation of suspension aerosol formulations (dispersion, flocculation, settling, creaming, suitability for metered dose inhaler); conditions: for homogeneity of suspension: Example 1: 1.6 percent in HFC 134a
Protocol: (§1) For each of the micronized drug substances A-G set forth below, formulations were prepared at drug concentrations of 0.017 percent, 0.039 percent, 0.083 percent, 0.41 percent, and 1.6 percent by weight based on the total weight of the formulation (corresponding to 0.20 mg/mL, 0.50 mg/mL, 1.0 mg/mL, 5.0 mg/Ml, and 20 mg/mL, respectively). The formulations were prepared by dispersing micronized drug in HFC 134a in a sealed 15 mL clear PET vial using ultrasonic energy.
For each propellant mix the range of drug concentrations used in Example 1 was used.
BDP formulations were prepared at 0.070 percent by weight (1.0 mg/mL) in HFC 227 and at 0.38 percent by weight (5.0 mg/mL) in a 1:1 mixture of HFC 227 and HFC 134a.
Formulations of salmeterol free base at 0.02 percent by weight and 0.05 percent by weight were prepared in HFC 134a and in HFC 227 by placing the drug and 5 mL of glass beads into a 15 mL glass vial, crimping on a continuous valve, and adding the appropriate amount of propellant. The formulations were shaken on a paint shaker for 10 min in order to disperse the drug.
The vial was then shaken on a paint shaker, chilled, and the contents transferred to 10 mL vials fitted with the metered dose valve. […] Valve delivery was measured through the life of the formulations.

[2] = Visual assessment of suspension formulations by time lapse photography 10 and 30 seconds after agitation; parameters: key: + = visually acceptable formulation; − = visually unacceptable formulation; ? = border line acceptable formulation
Protocol: as §1
Using time lapse photography 10 and 30 seconds after agitation the formulations were assessed as follows: […]
The formulations were photographed using time lapse photography at 10 and 30 seconds post agitation and were assessed as follows: […]

[3] = Respirable fraction (Anderson Cascade Impactor)
Protocol: In this assay the respirable fraction (the percent by weight of particles having an aerodynamic particle size of less than 4.7 microns) of the aerosol suspension is determined using an Anderson Cascade Impactor (available from Anderson Sampler Inc,; Atlanta, Ga.).
The aerosol vial to be tested is primed five times. The valve and valve stem are then cleaned with methanol and dried with compressed air. The aerosol vial and a clean, dry actuator are coupled to the glass throat attached to the top of the impactor using an appropriate firing adaptor. The calibrated vacuum pump (28.3 L/min) attached to the cascade impactor is turned on. A total of 20 sprays is delivered into the cascade impactor by repeatedly shaking the vial, seating it in the actuator and immediately delivering a single spray. The time between sprays is approximately 30 seconds. The cascade impactor is disassembled and each component is rinsed separately with diluent (55 parts methanol mixed with 45 parts of 0.1 percent aqueous phosphoric acid, v/v). Each solution is analyzed for pirbuterol acetate content using high performance liquid chromatography. The respirable fraction is calculated as follows:
% respirable=drug recovered from plates 3-7×100 total drug−drug recovered from recovered actuator and valve
In Examples 13-14 below respirable fraction is determined using the test method described above but using a diluent of 45 parts by volume methanol and 55 parts by volume of 0.1 percent aqueous phosphoric acid.

[4] = Example 1: drug concentration 0.017 % in HFC 134a alone
[5] = Example 1: drug concentration 0.039 % in HFC 134a alone
[6] = Example 1: drug concentration 0.083 % in HFC 134a alone
[7] = Example 1: drug concentration 0.41 % in HFC 134a alone
[8] = Example 1: drug concentration 1.63 % in HFC 134a alone
[9] = Example 4: 0.070 percent in HFC 227
[10] = Example 4: 0.38 percent in 1:1 HFC 134a/HFC 227
[11] = Example 5: 0.02 and 0.05 percent by weight in HFC 134a and in HFC 227

Compound: O=C([O-])c1cc(=O)c2c(OCC(O)COc3cccc4oc(C(=O)[O-])cc(=O)c34)cccc2o1.[Na+].[Na+] [Disodium cromoglycate]
- homogeneity of formulation ([1]; Example 2: 0.015, 0.035 and 0.070 percent by weight in HFC 227, no surfactant): particularly homogenous
- flocculation and sedimentation ([1]; Example 2: 0.35 percent and 1.4 percent in HFC 227, no surfactant): more rapid flocculation and sedimentation
- visual assessment of formulation [2, 4]: +
- visual assessment of formulation [2, 5]: +
- visual assessment of formulation [2, 6]: ?
- visual assessment of formulation [2, 7]: −
- visual assessment of formulation [2, 8]: −

Compound: CCC(=O)OCC(=O)[C@@]1(OC(=O)CC)[C@@H](C)C[C@H]2[C@@H]3CCC4=CC(=O)C=C[C@]4(C)[C@@]3(Cl)[C@@H](O)C[C@@]21C [Beclomethasone dipropionate]
- homogeneity of suspension [1]: particularly homogenous suspensions
- dispersion [1, 9]: fairly well dispersed
- time of flocculation after shaking [1, 9]: about 10 seconds
- flocculation [1, 10]: flocculation was rapid
- settling or creaming of flocs [1, 10]: the flocs neither settled nor creamed
- visual assessment of formulation [2, 4]: +
- visual assessment of formulation [2, 5]: +
- visual assessment of formulation [2, 6]: ?
- visual assessment of formulation [2, 7]: −
- visual assessment of formulation [2, 8]: +

Compound: Albuterol sulfate
- homogeneity of formulation ([1]; Comparative Example: CFC propellant mixes A and B (Propellants 11/114/12), no surfactant, 0.20, 0.50 and 1.0 mg/mL): acceptably homogenous
- caking of drug on container walls ([1]; Comparative Example: CFC propellant mixes A and B versus HFC 134a counterparts of Example 1): more caking of drug on the walls of the container than their HFC 134a counterparts
- flocculation ([1]; Comparative Example: CFC propellant mixes A and B, no surfactant, 5.0 and 20 mg/mL): relatively rapid flocculation
- suitability for metered dose inhaler ([1]; Example 15: 0.37 percent albuterol sulfate, 0.10 percent sorbitan trioleate, 9.95 percent ethanol, 89.58 percent HFC 227): deemed to be suitable for use in connection with a metered dose inhaler
- respirable fraction (aerodynamic particle size less than 4.7 microns) ([3]; Example 13: 0.4 percent by weight albuterol sulfate in HFC 227, duplicate, two vials): 69.3% and 60.6% and 64.0% and 63.0%
- respirable fraction (aerodynamic particle size less than 4.7 microns) ([3]; Example 14: 0.40 percent albuterol sulfate, 0.50 percent oleic acid, 15.0 percent ethanol, HFC 227, duplicate, two vials): 28.0% and 22.0% and 27.1% and 28.8%
- visual assessment of formulation [2, 4]: +
- visual assessment of formulation [2, 5]: +
- visual assessment of formulation [2, 6]: +
- visual assessment of formulation [2, 7]: −
- visual assessment of formulation [2, 8]: −

Compound: CC(C)(C)NCC(O)c1ccc(O)c(CO)c1 (stereo not drawn) [Albuterol]
- homogeneity of suspension [1]: particularly homogenous suspensions
- visual assessment of formulation [2, 4]: +
- visual assessment of formulation [2, 5]: +
- visual assessment of formulation [2, 6]: ?
- visual assessment of formulation [2, 7]: −
- visual assessment of formulation [2, 8]: +

Compound: Pirbuterol acetate
- suitability for metered dose inhaler ([1]; Example 9: 0.9 percent by weight pirbuterol acetate in HFC 227): deemed to be suitable for use in connection with a metered dose inhaler
- suitability for metered dose inhaler ([1]; Example 10: 0.90 percent pirbuterol acetate, 0.23 percent oleic acid, 10.0 percent ethanol, HFC 227): deemed to be suitable for use in connection with a metered dose inhaler
- respirable fraction (aerodynamic particle size less than 4.7 microns) ([3]; Example 11: 0.9 percent by weight pirbuterol acetate in HFC 227, duplicate, two vials): 59.1% and 54.8% and 53.9% and 49.3%
- respirable fraction (aerodynamic particle size less than 4.7 microns) ([3]; Example 12: 0.9 percent pirbuterol acetate, 10 percent ethanol, HFC 227, duplicate, two vials): 34.9% and 32.5% and 31.7% and 31.3%
- respirable fraction (aerodynamic particle size less than 4.7 microns) ([3]; Example 16: 0.9 percent pirbuterol acetate, 3 percent ethanol, HFC 227, two separate vials): 59.8% and 52.8%
- respirable fraction (aerodynamic particle size less than 4.7 microns) ([3]; Example 17: 0.9 percent pirbuterol acetate, 5 percent ethanol, HFC 227, two separate vials): 48.2% and 43.5%
- visual assessment of formulation [2, 4]: +
- visual assessment of formulation [2, 5]: +
- visual assessment of formulation [2, 6]: ?
- visual assessment of formulation [2, 7]: ?
- visual assessment of formulation [2, 8]: +

Compound: OCc1cc(C(O)CNCCCCCCOCCCCc2ccccc2)ccc1O (stereo not drawn) [salmeterol free base, salmeterol]
- creaming [1, 11]: cream in both propellants, more so in HFC 227 than in HFC 134a
- flocculation [1, 11]: Flocculation was also apparent
- suitability for metered dose inhaler [1, 11]: deemed suitable for use in connection with a metered dose inhaler
